Values joined by “and” are separate entries in the source; they are usually repeats but may differ in a detail not shown here. Equal entries are not always repeated. Where two headings read alike, the source gives them in different places.
Legend:
[1] = system: human LDL receptor promoter; assay: in vitro Luciferase Activity Test (LDL receptor promoter-luciferase reporter in recombinant CHO cells); type: cell-based; design: MED: unit not given here; settings: for Emax: Homo sapiens, CHO, read-out: MA%; for Emax / MA%: maximum activity (%) over control; for MED: minimum effective dose (molar concentration, unit not given), 24 hr, assay medium with 0.5 µg/ml 25-hydroxycholesterol; for RED: relative effective dose compared to compound of Example 4, below one = more active
Protocol: A 1546 base pair sequence of the human LDL receptor promoter was amplified using the polymerase chain reaction. A reaction mixture containing 20 pMoles each of the synthetic oligonucleotides 5'-[…]-3' (Seq. I.D. No: 1) and 5'-AAG-[…]-3', (Seq. I.D. No:2) 1 µg human genomic DNA purified from the adenocarcinoma cell line P3UCLA, 200 µM each of dATP, dGTP, dCTP, and TTP, 2.5 units of Taq DNA polymerase, 10mM Tris-HCI pH 8.3, 50 mM KCI, […], 0.1% gelatin in a final volume of 100 µl was subjected to 30 cycles of 15 sec at 96°C, 30 sec at 55°C, and 1 min at 72°C. The material was subject to gel electrophoresis on a 1% agarose gel and the 1546 base pair band was isolated and restriction enzyme digested with Hind III and Nde I. This fragment was ligated into the plasmid pSP72 (ProMega Biotech), which had previously been restriction enzyme nuclease digested with Hind III and Nde I. The resulting vector, pNLDLRP, was restriction endonulease digested with Ndel and Hind III and the material was again run on a 1% agarose gel to reisolate the 1546 bp LDL receptor sequence.
Plasmid vector PSv2 was constructed by digesting plasmid pSv2-globin with Hind III and Bgl II then ligating an Nrul-Xhol linker into the vector. Plasmid pSv2 globin is disclosed in U.S. Patent No. 4,775,624, the entire teaching of which is herein incorporated by reference. The linker contained the following sequences: [formula] (Seq. I.D. No: 3), and [formula] ' (Seq. I.D. No:4).
The resulting vector was designated pSv2-H NXB because it contained a […], an Nrul site, an Xhol site and a Bgl site. The Hind III-Bgl II fragment of plasmid pAlc4(NRRL B-18783), which contains the firefly luciferase gene, was then ligated into the Hin III-Bgl site of plasmid pSv2-HNXB. A neomycin resistance-conforming gene was then ligated into the Bam HI site of the resultant plasmid to form plasmid pSv2.
A 1546 base pair fragment was isolated and cloned into a Ndel and Hind III (partial) restriction digested vector pSv2 containing the firefly luciferase reporter gene and a gene for neomycin resistance. The resulting vector, pLDL-Luc1 Neo-10, contains the human LDL receptor promoter driving expression of the firefly luciferase gene, a gene coding for neomycin resistance, ampicillin resistant marker and an origin of replication.
Plasmid pLDL-Luc 1 Neo-10 was used to stably transfect Chinese Hamster Ovary cells using a Lipofection Reagent kit and procedure from Gibco BRL Research Products Division Life Technologies Inc. Transformants were selected by picking individual colonies grown in Dulbecco's modified Eagle's medium supplimented with 10% fetal bovine serum and containing 500 µg per ml […]. […] Clone S27/B30 was used for subsequent screening.
In developing a cell based screen it is important to have a negative control. The viral SV40 promoter is ideal for this purpose in that it has a number of SP1 elements that enhance gene transcription. These elements are not under the control of end product repression; but they do have a high degree of sequence homology with the 16 base pair long sterol response element found in the LDL receptor promoter. The SV40 promoter should therefore be a sensitive mechanism to screen out agents that induce nonspecific transcription.
Chinese Hamster Ovary cells were stably cotransfected with a vector pSV2AL-A 5' containing the SV40 promoter driving expression of the firefly luciferase gene and a second vector pSV2 NeoBam containing a neomycin resistant marker. Transfections were carried out using the Lipofectin Reagent kit and procedure from Gibco BRL Research Products Division Life Technologies Inc. Transformants were selected by picking individual colonies grown in Dulbecco's modified Eagle's medium supplemented with 10% fetal bovine serum and containing 500 µg per ml of geneticin. Individual clones were selected, lysed and assayed for luciferase production. […]

Syrian Golden hamsters = assay: In vivo serum cholesterol lowering in hamsters fed a cholesterol test diet; settings: hamsters; for inhibition in vivo at 100 mg/kg/day: Mesocricetus auratus, feed or water, 168 h, read-out: Percent Lowering of Cholesterol from Control Value Mean; for inhibition in vivo at 100 mg/kg/day / Percent Lowering of Cholesterol from Control Value Mean: 0.2% (w/w) in diet for one week (100 mg/kg/day), negative values = serum cholesterol increased relative to control; for Serum Cholesterol Mean: 0.2% (w/w) in Cholesterol Test Diet for one week, equivalent to 100 mg/kg/day, groups of six, control mean 337
Protocol: Syrian Golden hamsters were fed a cholesterol test diet made of 10% coconut oil and 0.12% cholesterol (by weight) in Purina 5001 Rodent Chow to induce hypercholesteriolemia.
After two weeks on the cholesterol test diet the hamsters were bled from the orbital sinium under light CO2 anesthesia. Serum was prepared and analyzed for cholesterol using a commercial test kit (Cholesterol High Performance, Single Vial™, product of Boehringer Mannheim Corp., Indianapolis, IN, USA). The hamsters were separated into groups of six animals, such that each group had approximately the same mean serum cholesterol levels. Selected compounds of the invention were incorporated into the Cholesterol Test Diet at 0.2% (w/w) and fed to the hamsters for one week. A control group of hamsters continued on the Cholesterol Test Diet during the same one-week period. The dose of test compounds of the invention was equivalent to 100 mg/kg/day based on the weight of the hamsters and their diet consumption. Upon completion of the test period, the animals were bled and serum cholesterol determined as above.
Mean serum cholesterol values from the test hamsters were compared to values from the control group and tested for significance at the Z.05 level using Dunnett's test.

[2] = NA is not active, 30% luciferase activity cutoff point (footnote 1)
[3] = tests using 30% luciferase activity cutoff point (footnote 1)
[4] = 30% luciferase activity cutoff point (footnote 1)
[5] = 15% luciferase activity cutoff point (footnote 2)
[6] = tests using 15% luciferase activity cutoff point (footnote 2)

Compound: C/C=C/C[C@@H]1[C@H](O)CC[C@@]2(C)[C@H]1CC[C@@H]1[C@@H]2CC[C@]2(C)[C@@H]([C@H](C)CCCC(C)C)CC[C@@H]12 [Example 4, [4a(E),5a]-4-(2-butenyl)cholestan-3a-ol]
- Emax [1, 2]: 80%
- MED [1, 3]: 2.2
- RED [1, 4]: 1.00
- inhibition in vivo at 100 mg/kg/day (Syrian Golden hamsters): 37.8%
- Serum Cholesterol Mean (Syrian Golden hamsters): 210 mg/dL

Compound: CC(C)CCC[C@@H](C)[C@H]1CC[C@H]2[C@@H]3CCC4[C@H](Cc5ccc(F)cc5)[C@H](O)CC[C@]4(C)[C@H]3CC[C@]12C (stereo partly shown) [Example 23, 4a-(4-fluorobenzyl)cholestan-3a-ol]
- Emax [1, 5]: 49%
- MA% [1, 5]: 37%
- inhibition in vivo at 100 mg/kg/day (Syrian Golden hamsters): 46.3%
- Serum Cholesterol Mean (Syrian Golden hamsters): 181 mg/dL

Compound: CC(C)CCC[C@@H](C)[C@H]1CC[C@H]2[C@@H]3CCC4[C@H](Cc5ccc(I)cc5)[C@H](O)CC[C@]4(C)[C@H]3CC[C@]12C (stereo partly shown) [Example 25, 4a-(4-iodobenzyl)cholestan-3a-ol]
- MA% [1, 5]: 89% and 64% and 79%
- inhibition in vivo at 100 mg/kg/day (Syrian Golden hamsters): 28.8%
- Serum Cholesterol Mean (Syrian Golden hamsters): 240 mg/dL

Compound: CC(C)CCC[C@@H](C)[C@H]1CC[C@H]2[C@@H]3CCC4[C@H](Cc5ccc(OC(F)(F)F)cc5)[C@H](O)CC[C@]4(C)[C@H]3CC[C@]12C (stereo partly shown) [Example 30, 4a-(4-trifluoromethoxybenzyl)cholestan-3a-ol]
- Emax [1, 5]: 76%
- MA% [1, 2]: 65% and 92%
- MED [1, 6]: 8.9
- MED [1, 3]: 17.3 and 8.9
- RED [1, 5]: 3.2
- inhibition in vivo at 100 mg/kg/day (Syrian Golden hamsters): 38%
- Serum Cholesterol Mean (Syrian Golden hamsters): 209 mg/dL

Compound: CC(C)CCC[C@@H](C)[C@H]1CC[C@H]2[C@@H]3CCC4[C@H](Cc5ccc(O)cc5)[C@H](O)CC[C@]4(C)[C@H]3CC[C@]12C (stereo partly shown) [Example 36, 4a-(4-hydroxybenzyl)cholestan-3a-ol]
- Emax [1, 5]: 20%
- MED [1, 6]: 40
- RED [1, 5]: 17.6
- inhibition in vivo at 100 mg/kg/day (Syrian Golden hamsters): 22.6%
- Serum Cholesterol Mean (Syrian Golden hamsters): 261 mg/dL

Compound: C=CC[C@H]1C2CC[C@@H]3[C@H](CC[C@]4(C)C(OCCCC(C)C)CC[C@@H]34)[C@@]2(C)CC[C@H]1O (stereo partly drawn) [Example 66, (3α,4α)-17-[(4-methylpentyl)oxy]-4-(2-propenyl)androstan-3-ol]
- MA% [1, 2]: 73% and 100% and 105% and 118%
- inhibition in vivo at 100 mg/kg/day (Syrian Golden hamsters): 30.7%
- Serum Cholesterol Mean (Syrian Golden hamsters): 234 mg/dL

Compound: C=CC[C@H]1C2CC[C@@H]3[C@H](CC[C@]4(C)C(OCc5ccccc5)CC[C@@H]34)[C@@]2(C)CC[C@H]1O (stereo partly drawn) [Example 68, (3α,4α)-17-(phenylmethoxy)-4-(2-propenyl)androstan-3-ol]
- Emax [1, 2]: 42%
- MA% [1, 2]: 33% and 39%
- inhibition in vivo at 100 mg/kg/day (Syrian Golden hamsters): 8.6%
- Serum Cholesterol Mean (Syrian Golden hamsters): 309 mg/dL

Compound: C=CC[C@@H]1C[C@@]2(C)[C@@H](CC[C@@H]3[C@@H]2CC[C@]2(C)[C@@H]([C@H](C)CCCC(C)C)CC[C@@H]32)C[C@@H]1O [Example 77, (2a, 3a, 5a)-2-(2-propenyl)cholestan-3-ol]
- Emax [1, 2]: 60%
- MED [1, 3]: 40.8
- RED [1, 4]: 4.6
- inhibition in vivo at 100 mg/kg/day (Syrian Golden hamsters): 38%
- Serum Cholesterol Mean (Syrian Golden hamsters): 209 mg/dL

Compound: C=CC[C@@H]1[C@H](NC(C)=O)CC[C@@]2(C)[C@H]1CC[C@@H]1[C@@H]2CC[C@]2(C)[C@@H]([C@H](C)CCCC(C)C)CC[C@@H]12 [Example 81, N-[(3α,4α,5α,20β)-4-(2-propenyl)cholestan-3-61]acetamide]
- Emax [1, 2]: 32%
- MED [1, 3]: 44.9
- RED [1, 4]: 7.9
- inhibition in vivo at 100 mg/kg/day (Syrian Golden hamsters): -7.8%
- Serum Cholesterol Mean (Syrian Golden hamsters): 364 mg/dL

Compound: C=CC[C@@H]1[C@H](N)CC[C@@]2(C)[C@H]1CC[C@@H]1[C@@H]2CC[C@]2(C)[C@@H]([C@H](C)CCCC(C)C)CC[C@@H]12 [Example 86]
- Emax [1, 2]: 89%
- MED [1, 3]: 5.6
- RED [1, 4]: 2.0
- inhibition in vivo at 100 mg/kg/day (Syrian Golden hamsters): -37.4%
- Serum Cholesterol Mean (Syrian Golden hamsters): 464 mg/dL

Compound: CCC[C@@H]1[C@H](O)CC[C@@]2(C)[C@H]1CC[C@@H]1[C@@H]2CC[C@]2(C)[C@@H]([C@H](C)CCCC(C)C)CC[C@@H]12 [Example 87]
- Emax [1, 2]: 14%
- MED [1, 3]: 23.2
- RED [1, 4]: 8.3
- inhibition in vivo at 100 mg/kg/day (Syrian Golden hamsters): 31.2%
- Serum Cholesterol Mean (Syrian Golden hamsters): 222 mg/dL

Compound: C=CC[C@@H]1[C@H](OC(=O)CCCCCCCCCCCCCCCCC)CC[C@@]2(C)[C@H]1CC[C@@H]1[C@@H]2CC[C@]2(C)[C@@H]([C@H](C)CCCC(C)C)CC[C@@H]12 [Example 99, (3a,4a,5a)-4-(2-propenyl)cholestan-3-ol octadecanoate (ester)]
- Serum Cholesterol Mean (Syrian Golden hamsters): 328 mg/dL
- Percent Lowering of Cholesterol from Control Value Mean (Syrian Golden hamsters): 2.7%

Compound: (3β,4α,5α,20β)-4-(2-propenyl)cholestan-3-amine [(22)]
- Serum Cholesterol Mean (Syrian Golden hamsters): 345 mg/dL
- Percent Lowering of Cholesterol from Control Value Mean (Syrian Golden hamsters): -2.4%
